Data set [1] deals with FVIII-inhibited human normal plasma. The data set is described as follows: Defined Fibrin Deposition Assay (clotting time). Format: biochemical. The following applies: for Activity in the Defined Fibrin Deposition Assay: summary. The method, then:
Another suitable assay to determine procoagulant activity, and particularly FVIII equivalent activity or FVIII inhibitor bypassing activity, is the Defined Fibrin Deposition Assay as described below. […] This assay is particularly useful for determining coagulation FVIII activity because it is conducted in the presence of FVIII-depleted or inhibited plasma.
The Defined Fibrin Deposition Assay is performed as follows. FVIII activity of human citrated plasma (Baxter AG) is first inhibited by incubating (2 hours, 37° C.) 100 μl of human normal plasma with 25 μl heat inactivated anti-human FVIII plasma (300 BU/ml, 6 hours incubated at 56° C.) raised in goat. For each sample to be tested, 125 μl of this FVIII-inhibited human normal plasma is transferred to a pre-warmed cuvette and a 75 μl dilution of a test compound or FEIBA reference standard (Baxter AG) is added. The dilutions of test compound or FEIBA reference standard contain 50 mM imidazole, 100 mM NaCl and 10 mg/ml human serum albumin (Sigma) pH 7.4. As a trigger and for providing procoagulant surfaces 100 μl of a mix of human factor XIa (3.13 nM, Enzyme Research Laboratories) and phospholipid (PL) vesicles (Phosphatidylcholine/Phosphatidylserine 60%/40%, 30 μM; Avanti Polar Lipids) in 50 mM Imidazole, 100 mM NaCl, 10 mg/ml human serum albumin (Sigma) pH 7.4 is included. After incubating for three minutes at 37° C. the coagulation reaction is started by adding 100 μl of 25 mM CaCl2. Clot formation is monitored by a coagulometer (KC10A, Amelung, Germany). In brief, each cuvette rotates slowly above the magnetic detection device and contains a small magnetic metallic ball. Whilst the plasma components remain in solution, the ball sits at the bottom of the cuvette. Over time, a clot begins to form, such that the ball starts to rotate with the developing clot in the rotating cuvette. The “clotting time” is recorded and is defined as the time from addition of the CaCl2) to the time that the developing clot begins to rotate the metallic ball. A standard curve for FEIBA reference standard dilutions is calculated by linear regression of logarithmic FEIBA concentrations (x-axis) against the clotting time (y-axis). Based on the clotting time of each compound concentration FEIBA equivalent activities are calculated according to this standard curve.
Thus, where a concentration of 100 μM is given, the actual concentration in the final assay volume in 25 μM.
Various peptides were tested for the ability to stimulate fibrin deposition in the Defined Fibrin Deposition Assay as described in the specific description.

A further data set has as its system C57BI/6 mice. The data set is described as follows: Acute toxicology in mice. Format: in vivo, mouse. The following applies: 60 minutes following administration; for Max dose within toxicity category: Severe toxicity (one of the animals died within one hour) / Max dose within toxicity category: Some toxicity (ataxy or catalepsy, no deaths): i.v. On the procedure:
Toxicology studies involved monitoring of attitude changes due to toxic effects immediately after application and twice daily; monitoring of body weight; histopathology of brain, heart, kidney, liver, lung. Experiments were performed in C57131/6 mice.
C57BI/6 mice weighing 18-20 g were administered with compounds in a suitable vehicle i.v. in the tail vein or i.p. or s.c at 10 ml/kg. Quantities of the compounds administered were in the range of 0.075 to 125 mg/kg (i.v.), 15-125 mg/kg (i.p.) and 125 mg/kg (s.c.). There were four mice per group. Attitude changes due to toxic effects were monitored immediately after administration of the compound and for 60 minutes thereafter. Body weight was monitored for five days after administration. At day 5 after administration, mice were culled and autopsy performed. Brain, heart, kidney, liver, lung and spleen were biopsied.
In the above table, the maximum dose tested giving rise to no detected toxicity, some toxicity or severe toxicity over the period of 60 minutes following administration is reported. “No detected toxicity” indicates no acute toxic observations.

Another data set deals with HERG channel (Homo sapiens, UniProt Q12809). The data set is described as follows: HERG inhibition, patch clamp assay. The following applies: patch clamp assay. On the procedure:
QT prolongation is assessed by HERG inhibition measured by patch-clamp techniques or Rb^+ efflux.
For rigorous characterization of HERG inhibition the patch clamp assay is applied (Cerep, France, Catalog ref. 900-36). […] The test compounds (10 mM stock solutions) were dissolved in dimethylsulfoxide (DMSO). The solutions at 1 μM contained 0.01% DMSO.

Data set [2] is described as follows: in vitro. The following applies: human, plasma.
Protocol: Half-life of compounds in human or mouse plasma, or percentage of compound remaining after an incubation in human or mouse plasma, is determined as follows. In the experimental procedure, test compound concentrations are 5 μM, prepared from test compound stock solutions of 10 mM in DMSO. Propantheline is used as a standard. […] All of the samples are incubated in a water bath at 37° C. […] After a chosen duration of incubation (generally at t=60 min) each sample is mixed with a further 500 μl acetonitrile. The samples are mixed on a vortex mixer for 30 s and placed on ice for 10 min and collected for centrifugation. Samples are centrifuged at 20 000 g for 10 min at 4° C. 500 μl supernatant is transferred into a new 1.5 ml Eppendorf tube and an equal volume of acetonitrile is added. The sample is mixed again for 30 s using a vortex mixer. After a second centrifugation step (20 000 g, 10 min, 4° C.) 250 μl of the supernatant is transferred into HPLC glass vials for HPLC-MS analysis. Conditions for performing HPLC are as follows: Injection-volume is set to 20 μl. Temperature is set to 25° C. A linear gradient from 95:5 to 5:95 water:acetonitrile both containing 0:05% trifluoroacetic acid (TFA) (v/v) is applied at a flow rate of 0.3 ml/min for 10 min. The PDA-detector is scanning from 210-400 nm.
The nature of data set [3]: in vitro. To be noted: mouse, microsomes, pH 7.4. Format: in vitro ADME. On the procedure:
Tests were used to determine the stability of compounds in microsomal preparations of human or animal origin. The microsomal stability is measured either in assays provided by Cerep (France, Catalog ref. 900-8h) or by the protocol described below. […] All wells must be carefully mixed to ensure a homogenous suspension before the next steps. 75 μl samples (duplicates) at t=0 minutes are taken for each compound. The plate is sealed and returned to the water bath/thermomixer for 30 minutes. The test compounds/standards are extracted by addition of 200 μl methanol, also including an internal standard. […] The samples are centrifuged at 1300 g for 10 min at 4° C. 200 μl of the supernatant is transferred into a 96-well plate with 10 μl DMSO per well. Compound stability is measured by HPLC-MS analysis (triplicates). The same procedure is repeated after 30 min. […] The signal to noise ratio for all peaks must be 5:1 or better. The ratio AUCanalyte: AUCstandard at the different timepoints must be used. The calculated stability for the control compound must fall in a certain range to validate the assay.

A further data set in a line: in vivo. The following applies: C57BL/6, mouse.

We go through 6 compounds from patent US10822376B2, “Biologically active peptides” (Baxalta Incorporated, priority 2008, dated 2020).

As usually defined, the share remaining is what is left of the initial amount, in per cent. A higher share remaining goes with less turnover.

Where a SMILES comes first, the peptide text is derived from it. Where no end group is shown, it is not given here. [ ]: non-standard residue; d: D form.

Chain of HERG channel (Q12809 whole entry): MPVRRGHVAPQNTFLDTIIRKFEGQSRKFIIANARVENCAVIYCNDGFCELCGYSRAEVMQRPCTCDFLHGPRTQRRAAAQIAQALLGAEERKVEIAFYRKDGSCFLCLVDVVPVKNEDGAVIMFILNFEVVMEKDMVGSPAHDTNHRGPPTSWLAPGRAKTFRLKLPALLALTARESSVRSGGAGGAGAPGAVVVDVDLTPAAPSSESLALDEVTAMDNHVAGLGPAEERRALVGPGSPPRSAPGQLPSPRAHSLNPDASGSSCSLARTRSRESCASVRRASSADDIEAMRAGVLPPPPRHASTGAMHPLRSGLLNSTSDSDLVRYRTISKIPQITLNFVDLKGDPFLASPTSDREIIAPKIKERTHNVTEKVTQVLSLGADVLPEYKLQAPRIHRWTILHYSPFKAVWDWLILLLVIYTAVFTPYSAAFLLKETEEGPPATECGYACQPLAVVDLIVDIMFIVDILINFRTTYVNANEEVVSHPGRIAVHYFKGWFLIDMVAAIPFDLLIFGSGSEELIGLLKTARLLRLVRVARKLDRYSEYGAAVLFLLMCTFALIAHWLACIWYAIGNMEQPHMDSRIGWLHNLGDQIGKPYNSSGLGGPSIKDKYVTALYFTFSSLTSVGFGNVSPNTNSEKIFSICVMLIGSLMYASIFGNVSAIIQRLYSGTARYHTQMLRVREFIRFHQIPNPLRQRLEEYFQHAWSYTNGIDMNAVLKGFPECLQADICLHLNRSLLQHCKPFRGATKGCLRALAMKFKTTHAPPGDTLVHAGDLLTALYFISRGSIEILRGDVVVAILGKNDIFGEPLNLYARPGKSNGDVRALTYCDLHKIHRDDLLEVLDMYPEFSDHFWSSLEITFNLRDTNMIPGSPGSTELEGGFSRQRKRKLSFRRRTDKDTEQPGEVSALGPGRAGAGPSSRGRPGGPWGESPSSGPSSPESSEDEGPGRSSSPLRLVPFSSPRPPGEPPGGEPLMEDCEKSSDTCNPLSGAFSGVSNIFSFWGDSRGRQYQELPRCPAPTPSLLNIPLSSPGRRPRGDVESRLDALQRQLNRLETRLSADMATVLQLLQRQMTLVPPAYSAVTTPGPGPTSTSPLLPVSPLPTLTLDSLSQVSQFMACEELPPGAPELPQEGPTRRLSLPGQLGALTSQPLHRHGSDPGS
Protocol for in vivo: Pharmacokinetics of compounds were tested in C57BI/6 mice or Wistar rats at 1-30 mg/kg. Compound concentrations in the blood stream were monitored at appropriate intervals using LC-MS.
Pharmacokinetic studies were performed to monitor compound concentrations in plasma following i.v., i.p. or s.c. administration. Studies were conducted in C57BI/6 mice weighing approximately 20 g.
Peptide concentrations in the plasma were analysed by HPLC-MS on a Surveyor HPLC combined with mass spectrometer LCQ classic or Advantage (all Thermo Electron, US) equipped with an ESI-source. All HPLC experiments were carried out on a Phenomenex C-18 Luna column (50 mm×2.0 mm, 5 μl injection volume) using a linear gradient: eluent A 0.05% trifluoracetic acid (TFA) in water; eluent B 0.05% TFA in acetonitrile; flow rate 0.3 mL/min in 10 min. […] The internal standard is prepared as a 0.1 μg/ml solution in 100% methanol. 50 μl plasma and 50 μl internal standard are mixed. 100 μl methanol is added and mixed thoroughly. After 30 min incubation on ice the vial is centrifuged for 15 min at 4° C. […] 150 μl of the supernatant are transferred into the HPLC vial

With `CC[C@@H](C)[C@@H](NC(=O)[C@@H](CS)NC(C)=O)C(=O)N[C@H](CCSC)C(=O)N[C@H](Cc1ccccc1)C(=O)N[C@H](Cc1c[nH]c2ccccc12)C(=O)N[C@H](Cc1ccc(O)cc1)C(=O)N[C@H](CC(=O)O)C(=O)N[C@H](CCC(=O)O)C(=O)N[C@H](Cc1ccc(O)cc1)C(=O)N[C@H](CCC(=O)O)C(N)=O` [Peptide B03, Ac-cimfwydeye-NH2] (Ac-[dC][dI][dM][dF][dW][dY][dD][dE][dY][dE]-NH2), the figures for the “FEIBA EU (from clotting time)” value in data set [1] (compound 12.5 μM) and in data set [1] (compound 25 μM) were 291 mU/ml and 325 mU/ml, respectively. Moreover, in data set [1], the “Activity in the Defined Fibrin Deposition Assay” value (“Activity” for short) is reported as “possess activity”. In addition, the “Max dose within toxicity category: Severe toxicity (one of the animals died within one hour)” value in the data set with C57BI/6 mice is recorded as 15 mg/kg. Also, on HERG channel, the “Classification as HERG-channel blocker (potency ranking of Roche et al.)” value (shortened to “Classification as HERG-channel blocker”) is on record as “high potency”.
On to Ac-PMKFDVWDLYFEIVW-NH2 [Peptide A02], for which, in “in vitro [2]”, the share remaining at 0.5 h, 5 μM came to 84%. In addition, the amount remaining at 0.5 h, 1 μM in the data set “in vitro [3]” turned out to be 45%. In the data set “in vivo” (ip), this compound registered a level at 5 min of 273 ng/mL, a level at 20 min of 315 ng/mL, a level at 40 min of 289 ng/mL and a level at 1 h of 612 ng/mL. In the data set “in vivo” (ip), the level at 80 min stood at 99 ng/mL and the level at 100 min was determined as 176 ng/mL. Further, in “in vivo” (iv), the level at 5 min worked out at 11600 ng/mL, the level at 10 min turned out to be 7260 ng/mL, the level at 0.25 h turned out to be 3180 ng/mL and the level at 20 min was determined as 2740 ng/mL. In the data set “in vivo” (iv), the level at 25 min stood at 1440 ng/mL and the level at 0.5 h came out at 1310 ng/mL.
Ac-RMKFDVWDLYFEIVW-NH2 [Peptide A01] had a share remaining at 0.5 h, 5 μM in “in vitro [2]” of 58%. Besides, the amount remaining at 0.5 h, 1 μM in the data set “in vitro [3]” amounted to 30%. Besides, in data set [1] (compound 25 μM), the “FEIBA EU (from clotting time)” value was found to be 80 mU/ml. Moreover, the “FEIBA EU (from clotting time)” value in data set [1] (compound 50 μM) was 127 mU/ml. In data set [1] (compound 100 μM), the “FEIBA EU (from clotting time)” value turned out to be 145 mU/ml. Moreover, the “Activity” value in data set [1] is on record as “possess activity”. Further, in “in vivo” (iv), the level at 5 min amounted to 673 ng/mL, the level at 10 min stood at 352 ng/mL, the level at 0.25 h is 454 ng/mL and the level at 20 min is 145 ng/mL. In “in vivo” (iv), this compound came in with a level at 25 min of 282 ng/mL and a level at 0.5 h of 115 ng/mL. Moreover, the “Classification as HERG-channel blocker” value on HERG channel is “low-potency”.
Compound Ac-WDLYFEIVW-NH2 [Peptide A05] came in with a fraction remaining at 0.5 h, 5 μM in “in vitro [2]” of 93%. The “FEIBA EU (from clotting time)” value in data set [1] (compound 10 μM) came to 119 mU/ml. In addition, in data set [1] (compound 25 μM), the “FEIBA EU (from clotting time)” value amounted to 193 mU/ml. Also, in data set [1] (compound 50 μM), the “FEIBA EU (from clotting time)” value was 219 mU/ml. Also, the “Activity” value in data set [1] is given as “possess activity”. For the same compound, in the data set on C57BI/6 mice, the “Max dose within toxicity category: Severe toxicity (one of the animals died within one hour)” value is 15 mg/kg and the “Max dose within toxicity category: Some toxicity (ataxy or catalepsy, no deaths)” value stood at 1.5 mg/kg. Further, in the data set “in vivo” (ip), the level at 5 min was determined as 119 ng/mL, the level at 20 min was 165 ng/mL, the level at 40 min amounted to 185 ng/mL and the level at 1 h was 130 ng/mL. In “in vivo” (ip), this compound displayed a level at 80 min of 49 ng/mL and a level at 100 min of 50 ng/mL. Moreover, in the data set “in vivo” (iv), the level at 5 min was determined as 2600 ng/mL, the level at 10 min came out at 2040 ng/mL, the level at 0.25 h is 173 ng/mL and the level at 20 min worked out at 101 ng/mL. The same compound displayed a level at 25 min in the data set “in vivo” (iv) of 23 ng/mL. Moreover, on HERG channel, the “Classification as HERG-channel blocker” value is on record as “low-potency”.
Regarding Ac-WDLYFEIVWE [Peptide A06], the share remaining at 0.5 h, 5 μM in “in vitro [2]” was 98%. The fraction remaining at 0.5 h, 1 μM in “in vitro [3]” was determined as 49%. Further, the “FEIBA EU (from clotting time)” value in data set [1] (compound 12.5 μM) stood at 232 mU/ml. Also, the “FEIBA EU (from clotting time)” value in data set [1] (compound 25 μM) was 168 mU/ml. Besides, in data set [1], the “Activity” value is reported as “possess activity”. In the data set on C57BI/6 mice, the “Max dose within toxicity category: Severe toxicity (one of the animals died within one hour)” value turned out to be 25 mg/kg and the “Max dose within toxicity category: Some toxicity (ataxy or catalepsy, no deaths)” value is 5 mg/kg. Further, in “in vivo” (ip), the level at 5 min was 6440 ng/mL, the level at 20 min amounted to 7770 ng/mL, the level at 40 min was 547 ng/mL and the level at 1 h worked out at 5800 ng/mL. In addition, in “in vivo” (ip), the level at 80 min was determined as 4060 ng/mL and the level at 100 min came out at 3020 ng/mL. In the data set “in vivo” (iv), this compound returned a level at 5 min of 50000 ng/mL, a level at 10 min of 32600 ng/mL, a level at 0.25 h of 21000 ng/mL and a level at 20 min of 15600 ng/mL. Besides, in “in vivo” (iv), the level at 25 min was determined as 11300 ng/mL and the level at 0.5 h came out at 7790 ng/mL.
As to H-ERMEFDVWDLYFEIVW-NH2 [Peptide A09], in the data set “in vitro [2]”, the amount remaining at 0.5 h, 5 μM was found to be 67%. Moreover, the fraction remaining at 0.5 h, 1 μM in “in vitro [3]” came to 23%. In addition, in the data set on C57BI/6 mice (i.p.), the “Max dose within toxicity category: No detected toxicity” value is on record as 15 mg/kg. For the same compound, in “in vivo” (ip), the level at 5 min came out at 34 ng/mL, the level at 20 min was determined as 67 ng/mL, the level at 40 min turned out to be 60 ng/mL and the level at 1 h turned out to be 129 ng/mL. In the data set “in vivo” (ip), this compound showed a level at 80 min of 74 ng/mL and a level at 100 min of 68 ng/mL. Further, in the data set “in vivo” (iv), the level at 5 min was 350 ng/mL, the level at 10 min was 184 ng/mL, the level at 0.25 h came to 109 ng/mL and the level at 20 min was 119 ng/mL. In “in vivo” (iv), this compound displayed a level at 25 min of 64 ng/mL and a level at 0.5 h of 80 ng/mL.
